Measurements published in ChEMBL document CHEMBL1156251, “Structure--activity relationships of polymyxin antibiotics” (J Med Chem, 2010).
≈ marks a conversion by molar mass, not a printed value. Where “and” joins values, the source holds several entries; their conditions need not be identical. Equal values may be shown once. *1 amine or outer side, *2 acyl side, *3 side chain or, on linkers, in order; H or OH if unused. Where a SMILES comes first, the peptide text is derived from it. Bridges are numbered along the chain shown (N, C = ends). [ ]: non-standard residue; d: D form. The star is where a group is joined. X1 = NC(=O)[C@@H](CS[*:2])C(=O)[*:1]; X2 = CC[C@H](C)[C@H](NO*)C(=O)O; Octanoyl = CCCCCCCC(=O)*; Dab = NCC[C@H](N)C(=O)O

Key:
Escherichia coli = assay: Antimicrobial activity against Escherichia coli; format: functional
Salmonella enterica = assay: Antimicrobial activity against Salmonella enterica; format: functional
Pseudomonas aeruginosa = assay: Antimicrobial activity against Pseudomonas aeruginosa; format: functional, organism-based
Lipopolysaccharide (LPS) = assay: Displacement of dansyl-PMB from LPS by isothermal titration calorimetry

MIC (Escherichia coli)	MIC (Salmonella enterica)	MIC (Pseudomonas aeruginosa) [µM]	IC50 (Lipopolysaccharide (LPS))	Ka (Lipopolysaccharide (LPS))	SMILES
1 µM (≈ 1.11 µg/mL)	1 µM	1 (≈ 1.11 µg/mL)	6 µM		CCCCCCCC(=O)N[C@@H](CCN)C(=O)N[C@H](C(=O)N[C@@H](CCN)C(=O)N[C@H]1CCNC(=O)[C@H]([C@@H](C)O)NC(=O)[C@H](CCN)NC(=O)[C@H](CCN)NC(=O)[C@H](CC(C)C)NC(=O)[C@@H](C)NC(=O)[C@H](CCN)NC1=O)[C@@H](C)O
1 µM (≈ 1.15 µg/mL)	1 µM	1 (≈ 1.15 µg/mL)	5 µM		CCCCCCCC(=O)N[C@@H](CCN)C(=O)N[C@H](C(=O)N[C@@H](CCN)C(=O)N[C@H]1CCNC(=O)[C@H]([C@@H](C)O)NC(=O)[C@H](CCN)NC(=O)[C@H](CCN)NC(=O)[C@H](C)NC(=O)[C@@H](Cc2ccccc2)NC(=O)[C@H](CCN)NC1=O)[C@@H](C)O
2 µM (≈ 2.46 µg/mL)	4 µM	2 (≈ 2.46 µg/mL)	26 µM		CCCCCCCC(=O)N[C@@H](CCN)C(=O)N[C@H](C(=O)N[C@@H](CCN)C(=O)N[C@H]1CCNC(=O)[C@H]([C@@H](C)O)NC(=O)[C@H](CCN)NC(=O)[C@H](CCNC(C)=O)NC(=O)[C@H](CC(C)C)NC(=O)[C@@H](Cc2ccccc2)NC(=O)[C@H](CCN)NC1=O)[C@@H](C)O
2 µM (≈ 2.14 µg/mL)	32 µM	4 (≈ 4.29 µg/mL)	8 µM		CCCCCCCC(=O)N[C@@H](CCN)C(=O)N[C@H](C(=O)N[C@@H](CCN)C(=O)N[C@H]1CCNC(=O)[C@H]([C@@H](C)O)NC(=O)[C@H](CCN)NC(=O)[C@H](CCN)NC(=O)[C@H](C)NC(=O)[C@@H](C)NC(=O)[C@H](CCN)NC1=O)[C@@H](C)O
1 µM (≈ 1.13 µg/mL)	2 µM	2 (≈ 2.27 µg/mL)	11 µM		CCCCCCCC(=O)N[C@@H](CCN)C(=O)N[C@H](C(=O)N[C@@H](CCN)C(=O)N[C@H]1CCNC(=O)[C@H]([C@@H](C)O)NC(=O)[C@H](CCN)NC(=O)[C@H](CCN)NC(=O)CNC(=O)[C@@H](Cc2ccccc2)NC(=O)[C@H](CCN)NC1=O)[C@@H](C)O
2 µM (≈ 2.53 µg/mL)	2 µM	2 (≈ 2.53 µg/mL)	5 µM		CCCCCCCC(=O)N[C@@H](CCN)C(=O)N[C@H](C(=O)N[C@@H](CCN)C(=O)N[C@H]1CCNC(=O)[C@H]([C@@H](C)O)NC(=O)[C@H](CCN)NC(=O)[C@H](CCN)NC(=O)[C@H](Cc2c[nH]c3ccccc23)NC(=O)[C@@H](Cc2ccccc2)NC(=O)[C@H](CCN)NC1=O)[C@@H](C)O
128 µM (≈ 114 µg/mL)	128 µM	128 (≈ 114 µg/mL)	30 µM		CCCCCCCC(=O)N[C@H]1CCNC(=O)[C@H]([C@@H](C)O)NC(=O)[C@H](CCN)NC(=O)[C@H](CCN)NC(=O)[C@H](CC(C)C)NC(=O)[C@@H](Cc2ccccc2)NC(=O)[C@H](CCN)NC1=O
16 µM (≈ 15.8 µg/mL)	16 µM	8 (≈ 7.91 µg/mL)	14 µM		CCCCCCCC(=O)N[C@@H](CCN)C(=O)N[C@H]1CCNC(=O)[C@H]([C@@H](C)O)NC(=O)[C@H](CCN)NC(=O)[C@H](CCN)NC(=O)[C@H](CC(C)C)NC(=O)[C@@H](Cc2ccccc2)NC(=O)[C@H](CCN)NC1=O
2 µM (≈ 2.38 µg/mL)	2 µM	2 (≈ 2.38 µg/mL)	10 µM		CCCCCCCC(=O)N[C@@H](CCN)C(=O)N[C@H](C(=O)N[C@@H](CCN)C(=O)N[C@H]1CCNC(=O)[C@H]([C@@H](C)O)NC(=O)[C@H](CCN)NC(=O)[C@H](CCN)NC(=O)[C@H](CC(C)C)NC(=O)[C@H](Cc2ccccc2)NC(=O)[C@H](CCN)NC1=O)[C@@H](C)O
	> 1000 µg/mL			0.29 10^7/M	CC[C@H](C)[C@H](NOC(=O)[C@H](CCCCN)NC(=O)CNC(=O)[C@@H](NC(=O)[C@H](CCCCN)NC(=O)[C@@H]1CSSC[C@H](C(N)=O)C(=O)N[C@@H](CCCCN)C(=O)N[C@@H](Cc2ccccc2)C(=O)N[C@@H](CC(C)C)C(=O)N[C@@H](CCCCN)C(=O)N[C@@H](CCCCN)C(=O)N1)[C@@H](C)O)C(=O)O (KFLKKCKTGK-X2; linker N-6 via X1)
256 µM (≈ 267 µg/mL)	≥ 512 µM	≥ 512	20 µM		CCCCCCCC(=O)N[C@@H](CCN)C(=O)N[C@H](C(=O)N[C@@H](CCN)C(=O)N[C@H]1CCNC(=O)[C@H]([C@@H](C)O)NC(=O)[C@H](CCN)NC(=O)[C@H](CCN)NC(=O)CNC(=O)CNC(=O)[C@H](CCN)NC1=O)[C@@H](C)O (Octanoyl-[Dab]T[Dab][Dab][Dab]GG[Dab][Dab]T; lactam 4-C)
2 µM (≈ 2.2 µg/mL)	16 µM	1 (≈ 1.1 µg/mL)	11 µM		CCCCCCCC(=O)N[C@@H](CCN)C(=O)N[C@H](C(=O)N[C@@H](CCN)C(=O)N[C@H]1CCNC(=O)[C@H]([C@@H](C)O)NC(=O)[C@H](CCN)NC(=O)[C@H](CCN)NC(=O)[C@H](CC(C)C)NC(=O)CNC(=O)[C@H](CCN)NC1=O)[C@@H](C)O (Octanoyl-[Dab]T[Dab][Dab][Dab]GL[Dab][Dab]T; lactam 4-C)
4 µM (≈ 4.64 µg/mL)	4 µM	2 (≈ 2.32 µg/mL)	19 µM		CCCCCCCC(=O)N[C@@H](CCN)C(=O)N[C@H](C(=O)N[C@@H](CCN)C(=O)N[C@H]1CCNC(=O)[C@H]([C@@H](C)O)NC(=O)[C@H](C)NC(=O)[C@H](CCN)NC(=O)[C@H](CC(C)C)NC(=O)[C@@H](Cc2ccccc2)NC(=O)[C@H](CCN)NC1=O)[C@@H](C)O (Octanoyl-[Dab]T[Dab][Dab][Dab][dF]L[Dab]AT; lactam 4-C)
2 µM (≈ 2.32 µg/mL)	1 µM	1 (≈ 1.16 µg/mL)	5 µM		CCCCCCCC(=O)N[C@@H](CCN)C(=O)N[C@H](C(=O)N[C@@H](CCN)C(=O)N[C@H]1CCNC(=O)[C@H](C)NC(=O)[C@H](CCN)NC(=O)[C@H](CCN)NC(=O)[C@H](CC(C)C)NC(=O)[C@@H](Cc2ccccc2)NC(=O)[C@H](CCN)NC1=O)[C@@H](C)O (Octanoyl-[Dab]T[Dab][Dab][Dab][dF]L[Dab][Dab]A; lactam 4-C)
2 µM (≈ 2.46 µg/mL)	2 µM	2 (≈ 2.46 µg/mL)	6 µM		CCCCCCCC(=O)N[C@@H](CCN)C(=O)N[C@H](C(=O)N[C@@H](CCN)C(=O)N[C@H]1CCNC(=O)[C@H]([C@@H](C)O)NC(=O)[C@H](CCN)NC(=O)[C@H](CCN)NC(=O)[C@H](CC(C)C)NC(=O)C(Cc2c[nH]c3ccccc23)NC(=O)[C@H](CCN)NC1=O)[C@@H](C)O (stereo in doubt)
2 µM (≈ 2.18 µg/mL)	2 µM	2 (≈ 2.18 µg/mL)	12 µM		CCCCCCCC(=O)N[C@H](C(=O)N[C@@H](CCN)C(=O)N[C@H]1CCNC(=O)[C@H]([C@@H](C)O)NC(=O)[C@H](CCN)NC(=O)[C@H](CCN)NC(=O)[C@H](CC(C)C)NC(=O)[C@@H](Cc2ccccc2)NC(=O)[C@H](CCN)NC1=O)[C@@H](C)O (stereo in doubt; 231) [Octanoyl Polymixin B nonapeptide]
8 µM and 30 µg/mL	16 µM	4 (≈ 4.42 µg/mL)	13 µM		CC(=O)N[C@@H](CCN)C(=O)N[C@H](C(=O)N[C@@H](CCN)C(=O)N[C@H]1CCNC(=O)[C@H]([C@@H](C)O)NC(=O)[C@H](CCN)NC(=O)[C@H](CCN)NC(=O)[C@H](CC(C)C)NC(=O)[C@@H](Cc2ccccc2)NC(=O)[C@H](CCN)NC1=O)[C@@H](C)O [DEACYL POLYMYXIN B] (Ac-[Dab]T[Dab][Dab][Dab][dF]L[Dab][Dab]T; lactam 4-C)
32 µM (≈ 34.5 µg/mL)	64 µM	32 (≈ 34.5 µg/mL)	>= 32 nmol/ml		CC(C)C[C@@H]1NC(=O)[C@@H](Cc2ccccc2)NC(=O)[C@H](CCN)NC(=O)[C@@H](NC(=O)[C@H](CCN)NC(=O)[C@@H](NC(=O)[C@H](C)NC(=O)O)[C@@H](C)O)CCNC(=O)[C@H]([C@@H](C)O)NC(=O)[C@H](CCN)NC(=O)[C@H](CCN)NC1=O [DESFA-[ALA1]POLYMYXIN B]
64 µM (≈ 75.3 µg/mL)	128 µM	128 (≈ 151 µg/mL)	>= 32 nmol/ml		CC(C)C[C@@H]1NC(=O)[C@@H](Cc2ccccc2)NC(=O)[C@H](CCN)NC(=O)[C@@H](NC(=O)[C@H](CCN)NC(=O)[C@@H](NC(=O)[C@H](C)NC(=O)[C@@H](C)NC(=O)[C@H](C)N)[C@@H](C)O)CCNC(=O)[C@H]([C@@H](C)O)NC(=O)[C@H](CCN)NC(=O)[C@H](CCN)NC1=O [DESFA-[ALA-ALA-ALA1]POLYMYXIN B]
8 µM (≈ 9.31 µg/mL)	16 µM	16 (≈ 18.6 µg/mL)	15 µM		CC(C)C[C@@H]1NC(=O)[C@@H](Cc2ccccc2)NC(=O)[C@H](CCN)NC(=O)[C@@H](NC(=O)[C@H](CCN)NC(=O)[C@@H](NC(=O)[C@H](CCCNC(=N)N)NC(=O)O)[C@@H](C)O)CCNC(=O)[C@H]([C@@H](C)O)NC(=O)[C@H](CCN)NC(=O)[C@H](CCN)NC1=O [DESFA-[ARG1]POLYMYXIN B]
16 µM (≈ 22.9 µg/mL)	64 µM	1 (≈ 1.43 µg/mL)	3 µM		CC(C)C[C@@H]1NC(=O)[C@@H](Cc2ccccc2)NC(=O)[C@H](CCN)NC(=O)[C@@H](NC(=O)[C@H](CCN)NC(=O)[C@@H](NC(=O)[C@H](CCCNC(=N)N)NC(=O)[C@@H](CCCNC(=N)N)NC(=O)[C@@H](N)CCCNC(=N)N)[C@@H](C)O)CCNC(=O)[C@H]([C@@H](C)O)NC(=O)[C@H](CCN)NC(=O)[C@H](CCN)NC1=O [DESFA-[ARG-ARG-ARG1]POLYMYXIN B]
8 µM (≈ 8.86 µg/mL)	16 µM	4 (≈ 4.43 µg/mL)	19 µM		CC(C)C[C@@H]1NC(=O)[C@@H](Cc2ccccc2)NC(=O)[C@H](CCN)NC(=O)[C@@H](NC(=O)[C@H](CCN)NC(=O)[C@@H](NC(=O)[C@H](CCN)NC(=O)O)[C@@H](C)O)CCNC(=O)[C@H]([C@@H](C)O)NC(=O)[C@H](CCN)NC(=O)[C@H](CCN)NC1=O [DESFA-[DAB1]POLYMYXIN B]
8 µM (≈ 10.1 µg/mL)	32 µM	0.5 (≈ 0.632 µg/mL)	3 µM		CC(C)C[C@@H]1NC(=O)[C@@H](Cc2ccccc2)NC(=O)[C@H](CCN)NC(=O)[C@@H](NC(=O)[C@H](CCN)NC(=O)[C@@H](NC(=O)[C@H](CCN)NC(=O)[C@@H](CCN)NC(=O)[C@@H](N)CCN)[C@@H](C)O)CCNC(=O)[C@H]([C@@H](C)O)NC(=O)[C@H](CCN)NC(=O)[C@H](CCN)NC1=O [DESFA-[DAB-DAB-DAB1]POLYMYXIN B]
